One assay is filed under the species Mus musculus. Briefly: Mitogenic effect on BALB/c 3T3 A31 fibroblast culture at 0-200 uM. The format is functional. Particulars: BALB/c3T3, read-out: ED50 (the source's name).
Another assay has as its system NIH3T3. The assay can be described thus: Displacement of human acidic FGF from FGF receptor of mouse 3T3 cells at 0-200 uM. The assay is classed as cell-based.

As for `CC(=O)N[C@@H](Cc1c[nH]c2ccccc12)C(=O)N[C@@H](Cc1ccccc1)C(=O)N[C@H](C(=O)NCC(=O)N[C@@H](CC(C)C)C(=O)N[C@@H](CCCCN)C(=O)N[C@@H](CCCCN)C(=O)N[C@@H](CC(N)=O)C(=O)NCC(=O)N[C@@H](CO)C(=O)N[C@@H](CO)C(=O)N[C@@H](CCCCN)C(=O)N[C@@H](CCCN=C(N)N)C(=O)NCC(=O)N1CCC[C@H]1C(=O)N[C@@H](CCCN=C(N)N)C(=O)N[C@H](C(N)=O)[C@@H](C)O)C(C)C`, the EC50 in the assay filed under Mus musculus turned out to be 20 µM.

`CC(=O)N[C@@H](Cc1c[nH]c2ccccc12)C(=O)N[C@@H](Cc1ccccc1)C(=O)N[C@H](C(=O)NCC(=O)N[C@@H](CC(C)C)C(=O)N[C@@H](CCCCN)C(=O)N[C@@H](CCCCN)C(=O)N[C@@H](CC(N)=O)C(=O)NCC(=O)N[C@@H](CO)C(=O)N[C@@H](CO)C(=O)N[C@@H](CCCCN)C(=O)N[C@@H](CCCN=C(N)N)C(=O)NCC(=O)N1CCC[C@@H]1C(=O)N[C@@H](CCCN=C(N)N)C(=O)N[C@H](C(N)=O)[C@@H](C)O)C(C)C` gave an ID50 with NIH3T3 of 50 µM.

These data come from ChEMBL document CHEMBL1144869, “Introduction of a chemical constraint in a short peptide derived from human acidic fibroblast growth factor elicits mitogenic structural determinants” (2003).
